16 molecules from patent US6867320B2, “Substituted phenylalkanoic acid derivatives and use thereof” (Asahi Kasei Pharma Corporation, priority 2002, dated 2005) can be followed below.

Each structure is given as a SMILES string.

For the experiment, the system named is PGE2 production from IL-1β-stimulated MG-63 cells. Briefly: Suppressing action on PGE2 production from IL-1β-stimulated MG-63 cells. As to conditions: Homo sapiens, IL-1β 1 ng/ml, 18 hours, read-out: PGE2 production suppression ratio. The experiment is classed as cell-based. From the text:
1. Suppressing Action on PGE2 Production from IL-1β-Stimulated MG-63 Cells (1) Method for Measurement
An action of suppressing PGE2 production caused by interleukin (IL) 1β as an inflammatory stimulant was studied by the following method. Cells of MG-63, which is a human osteosarcoma cell line (purchased from Dainippon Pharmaceutical), were suspended in EMEM medium (GIBCO) containing 10% fetal bovine serum (BioFluid), and then inoculated to each well of 96-well culture plate at a density of 2×10^4 cells/well and cultured overnight. The medium was changed to EMEM medium containing 0.5% fetal bovine serum, and then a test compound was added with each well. Human interleukin-1β (ENDOGEN) was further added as an inflammatory stimulant at a final concentration of 1 ng/ml. The cells were further cultured for 18 hours. The culture supernatant was collected, and the PGE2 concentration in the culture supernatant was measured by using EIA kit (CAYMAN). By using a well which was not added with the stimulant as a negative control and a well which was added only with the stimulant as a positive control, suppression ratios on PGE2 production were calculated from produced amounts of PGE2 in the well added with the test compound using the following equation. PGE2 production suppression ratio=[1−(C−B)/(A−B)]×100 • A: PGE2 production amount of positive control • B: PGE2 production amount of negative control • C: PGE2 production amount in well added with test compound
`O=C(O)CCc1ccc(OCc2cccc(F)c2)c(-c2ccc3[nH]ccc3c2)c1` [Compound 144, 3-[4-(3-fluorophenylmethyloxy)-3-(1H-indol-5-yl)phenyl]propionic acid]: the inhibition at 0.4 µM was not below 50%. Consider `O=C(O)CCc1ccc(OCc2ccccc2C(F)(F)F)c(-c2ccc3[nH]ccc3c2)c1` [Compound 170, 3-{3-(1H-indol-5-yl)-4-[2-(trifluoromethyl)phenylmethyloxy]-phenyl}propionic acid], for which the inhibition at 0.4 µM was not below 50%. On to `O=C(O)CCc1ccc(OCc2ccc(C(F)(F)F)cc2)c(-c2ccc3[nH]ccc3c2)c1` [Compound 172, 3-{3-(1H-indol-5-yl)-4-[4-(trifluoromethyl)phenylmethyloxy]-phenyl}propionic acid], for which the inhibition at 0.4 µM is not below 50%. Then `Cc1cc(C)cc(COc2ccc(CCC(=O)O)cc2-c2ccc3[nH]ccc3c2)c1` [Compound 175, 3-[4-(3,5-dimethylphenylmethyloxy)-3-(1H-indol-5-yl)phenyl]propionic acid], with not below 50%; and `O=C(O)CCc1ccc(OC2CCCCCC2)c(-c2ccc3[nH]ccc3c2)c1` [Compound 184, 3-[4-cycloheptyloxy-3-(1H-indol-5-yl)phenyl]propionic acid], with not below 50%; and `O=C(O)CCc1ccc(OCc2cc(Cl)cc(Cl)c2)c(-c2ccc3[nH]ccc3c2)c1` [Compound 188, 3-[4-(3,5-dichlorophenylmethyloxy)-3-(1H-indol-5-yl)phenyl]propionic acid], with not below 50%. Consider `O=C(O)CCc1ccc(OCc2ccco2)c(-c2ccc3[nH]ccc3c2)c1` [Compound 194, 3-{4-[(furan-2-yl)methyloxy]-3-(1H-indol-5-yl)phenyl}propionic acid], for which the inhibition at 0.4 µM is not below 50%.

`O=C(O)CCc1ccc(OCc2ccoc2)c(-c2ccc3[nH]ccc3c2)c1` [Compound 196, 3-{4-[(furan-3-yl)methyloxy]-3-(1H-indol-5-yl)phenyl}propionic acid]: the inhibition at 0.4 µM was not below 50%. Turning to `O=C(O)CCc1ccc(OCc2cccs2)c(-c2ccc3[nH]ccc3c2)c1` [Compound 198, 3-{3-(1H-indol-5-yl)-4-[(thiophen-2-yl)methyloxy]phenyl}propionic acid], the inhibition at 0.4 µM was not below 50%. The figure for `CC(C)n1ccc2cc(-c3cc(CCC(=O)O)ccc3OCC3CCCC3)ccc21` [Compound 238, 3-[4-cyclopentylmethyloxy-3-(1-isopropyl-1H-indol-5-yl)phenyl]propionic acid] is not below 50%; for `CCCCn1ccc2cc(-c3cc(CCC(=O)O)ccc3OCC3CCCC3)ccc21` [Compound 240, 3-[3-(1-butyl-1H-indol-5-yl)-4-cyclopentylmethyloxyphenyl]propionic acid] it is not below 50%. The figure for `O=C(O)CCc1ccc(OCC2CCCC2)c(-c2ccc3c(ccn3C3CCCC3)c2)c1` [Compound 242, 3-[3-(1-cyclopentyl-1H-indol-5-yl)-4-cyclopentylmethyloxyphenyl]propionic acid] is not below 50%. Turning to `Cc1cn(C)c2ccc(-c3cc(CCC(=O)O)ccc3OCC3CCCC3)cc12` [Compound 252, 3-[4-cyclopentylmethyloxy-3-(1,3-dimethyl-1H-indol-5-yl)phenyl]propionic acid], the inhibition at 0.4 µM was not below 50%. With `O=Cc1c[nH]c2ccc(-c3cc(CCC(=O)O)ccc3OCC3CCCC3)cc12` [Compound 254, 3-[4-cyclopentylmethyloxy-3-(3-formyl-1H-indol-5-yl)phenyl]propionic acid], the inhibition at 0.4 µM is not below 50%. With `Cn1cc(C=O)c2cc(-c3cc(CCC(=O)O)ccc3OCC3CCCC3)ccc21` [Compound 255, 3-[4-cyclopentylmethyloxy-3-(3-formyl-1-methyl-1H-indol-5-yl)phenyl]propionic acid], the inhibition at 0.4 µM was not below 50%. On to `CC(=O)c1cn(C)c2ccc(-c3cc(CCC(=O)O)ccc3OCC3CCCC3)cc12` [Compound 259, 3-[3-(3-acetyl-1-methyl-1H-indol-5-yl)-4-cyclopentylmethyloxyphenyl]propionic acid], for which the inhibition at 0.4 µM is not below 50%.
